Numbers after ± are expanded uncertainties.
Test: xn = mol fraction of the nth substance listed
Settings: Liquid, Vibrating tube method, x2 = 0.3333

Q: With `NC(N)=O` [urea] + C[N+](C)(C)CCO.[Cl-] as the compound, how does the mass density (298.15 K, 100 kPa) read?
A: 1197.9 ± 2.7 kg/m3

Q: What about the mass density (298.15 K, 5000 kPa) of the same compound?
A: 1199.3 ± 2.7 kg/m3

Q: What about the mass density (298.15 K, 10000 kPa) of the same compound?
A: 1200.6 ± 2.7 kg/m3

Q: And the mass density (298.15 K, 15000 kPa)?
A: 1201.9 ± 2.7 kg/m3

Q: And the mass density (298.15 K, 20000 kPa)?
A: 1203.3 ± 2.7 kg/m3

Q: And the mass density (298.15 K, 25000 kPa)?
A: 1204.6 ± 2.8 kg/m3

Q: What about the mass density (298.15 K, 30000 kPa) of the same compound?
A: 1205.9 ± 2.8 kg/m3

Q: What about the mass density (298.15 K, 35000 kPa) of the same compound?
A: 1207.1 ± 2.8 kg/m3

Q: And the mass density (298.15 K, 40000 kPa)?
A: 1208.3 ± 2.8 kg/m3

Q: And the mass density (298.15 K, 45000 kPa)?
A: 1209.5 ± 2.9 kg/m3

Q: What about the mass density (298.15 K, 50000 kPa) of the same compound?
A: 1210.7 ± 2.9 kg/m3

Q: And the mass density (303.15 K, 100 kPa)?
A: 1195.1 ± 2.7 kg/m3

Q: What about the mass density (303.15 K, 5000 kPa) of the same compound?
A: 1196.4 ± 2.7 kg/m3

Q: And the mass density (303.15 K, 10000 kPa)?
A: 1197.9 ± 2.7 kg/m3

Q: And the mass density (303.15 K, 15000 kPa)?
A: 1199.1 ± 2.7 kg/m3

Q: What about the mass density (303.15 K, 20000 kPa) of the same compound?
A: 1200.4 ± 2.7 kg/m3

Q: What about the mass density (303.15 K, 25000 kPa) of the same compound?
A: 1201.8 ± 2.8 kg/m3

Q: What about the mass density (303.15 K, 30000 kPa) of the same compound?
A: 1203.1 ± 2.8 kg/m3

Q: And the mass density (303.15 K, 35000 kPa)?
A: 1204.4 ± 2.8 kg/m3

Q: What about the mass density (303.15 K, 40000 kPa) of the same compound?
A: 1205.6 ± 2.8 kg/m3

Q: What about the mass density (303.15 K, 45000 kPa) of the same compound?
A: 1206.8 ± 2.8 kg/m3

Q: And the mass density (303.15 K, 50000 kPa)?
A: 1208 ± 2.9 kg/m3

Q: What about the mass density (308.15 K, 100 kPa) of the same compound?
A: 1192.2 ± 2.6 kg/m3

Q: And the mass density (308.15 K, 5000 kPa)?
A: 1193.6 ± 2.7 kg/m3

Q: What about the mass density (308.15 K, 10000 kPa) of the same compound?
A: 1194.9 ± 2.7 kg/m3

Q: And the mass density (308.15 K, 15000 kPa)?
A: 1196.3 ± 2.7 kg/m3

Q: And the mass density (308.15 K, 20000 kPa)?
A: 1197.6 ± 2.7 kg/m3

Q: And the mass density (308.15 K, 25000 kPa)?
A: 1198.9 ± 2.7 kg/m3

Q: And the mass density (308.15 K, 30000 kPa)?
A: 1200.3 ± 2.8 kg/m3

Q: And the mass density (308.15 K, 35000 kPa)?
A: 1201.5 ± 2.8 kg/m3

Q: And the mass density (308.15 K, 40000 kPa)?
A: 1202.8 ± 2.8 kg/m3

Q: And the mass density (308.15 K, 45000 kPa)?
A: 1204 ± 2.8 kg/m3

Q: And the mass density (308.15 K, 50000 kPa)?
A: 1205.1 ± 2.9 kg/m3

Q: And the mass density (313.15 K, 100 kPa)?
A: 1189.3 ± 2.6 kg/m3

Q: What about the mass density (313.15 K, 5000 kPa) of the same compound?
A: 1190.7 ± 2.7 kg/m3

Q: What about the mass density (313.15 K, 10000 kPa) of the same compound?
A: 1192 ± 2.7 kg/m3

Q: And the mass density (313.15 K, 15000 kPa)?
A: 1193.4 ± 2.7 kg/m3

Q: What about the mass density (313.15 K, 20000 kPa) of the same compound?
A: 1194.7 ± 2.7 kg/m3

Q: What about the mass density (313.15 K, 25000 kPa) of the same compound?
A: 1196.1 ± 2.7 kg/m3

Q: What about the mass density (313.15 K, 30000 kPa) of the same compound?
A: 1197.4 ± 2.8 kg/m3

Q: And the mass density (313.15 K, 35000 kPa)?
A: 1198.7 ± 2.8 kg/m3

Q: What about the mass density (313.15 K, 40000 kPa) of the same compound?
A: 1200 ± 2.8 kg/m3

Q: And the mass density (313.15 K, 45000 kPa)?
A: 1201.2 ± 2.8 kg/m3

Q: And the mass density (313.15 K, 50000 kPa)?
A: 1202.3 ± 2.8 kg/m3

Q: And the mass density (318.15 K, 100 kPa)?
A: 1186.4 ± 2.6 kg/m3

Q: What about the mass density (318.15 K, 5000 kPa) of the same compound?
A: 1187.8 ± 2.6 kg/m3

Q: And the mass density (318.15 K, 10000 kPa)?
A: 1189.2 ± 2.7 kg/m3

Q: What about the mass density (318.15 K, 15000 kPa) of the same compound?
A: 1190.5 ± 2.7 kg/m3

Q: And the mass density (318.15 K, 20000 kPa)?
A: 1191.9 ± 2.7 kg/m3

Q: And the mass density (318.15 K, 25000 kPa)?
A: 1193.2 ± 2.7 kg/m3

Q: What about the mass density (318.15 K, 30000 kPa) of the same compound?
A: 1194.6 ± 2.7 kg/m3

Q: What about the mass density (318.15 K, 35000 kPa) of the same compound?
A: 1195.8 ± 2.8 kg/m3

Q: What about the mass density (318.15 K, 40000 kPa) of the same compound?
A: 1197.1 ± 2.8 kg/m3

Q: And the mass density (318.15 K, 45000 kPa)?
A: 1198.3 ± 2.8 kg/m3

Q: What about the mass density (318.15 K, 50000 kPa) of the same compound?
A: 1199.5 ± 2.8 kg/m3

Q: And the mass density (323.15 K, 100 kPa)?
A: 1183.5 ± 2.6 kg/m3

Q: What about the mass density (323.15 K, 5000 kPa) of the same compound?
A: 1184.9 ± 2.6 kg/m3

Q: And the mass density (323.15 K, 10000 kPa)?
A: 1186.3 ± 2.7 kg/m3

Q: And the mass density (323.15 K, 15000 kPa)?
A: 1187.6 ± 2.7 kg/m3

Q: And the mass density (323.15 K, 20000 kPa)?
A: 1189 ± 2.7 kg/m3

Q: And the mass density (323.15 K, 25000 kPa)?
A: 1190.4 ± 2.7 kg/m3

Q: And the mass density (323.15 K, 30000 kPa)?
A: 1191.6 ± 2.7 kg/m3

Q: What about the mass density (323.15 K, 35000 kPa) of the same compound?
A: 1193 ± 2.8 kg/m3

Q: And the mass density (323.15 K, 40000 kPa)?
A: 1194.2 ± 2.8 kg/m3

Q: What about the mass density (323.15 K, 45000 kPa) of the same compound?
A: 1195.5 ± 2.8 kg/m3

Q: And the mass density (323.15 K, 50000 kPa)?
A: 1196.7 ± 2.8 kg/m3
